This note sets out measurements from patent publication US5321029A, “Xanthines” (Beecham-Wuelfing GmbH & Co.K.G., priority 1988, dated 1994).

In one assay the target is c-AMP phosphodiesterase (erythrocytes). Put plainly: Inhibition of cyclic AMP phosphodiesterase (erythrocytes). The settings on record: phosphodiesterase extracted from erythrocytes, phosphate buffer pH 7.4, radiochemical procedure. Type of assay: biochemical. The method, then: The procedure used was that described by Arch, J. R. S. and Newsholme, E. A. in Biochem. J. 158, 603, (1976):
Erythrocytes were obtained from Na-citrate (16 mM; 0.1 ml/ml blood) anticoagulated blood by repeated centrifugation with removal of the buff coat and washing with an isotonic buffer (composition in mM: NaCl […], KCl 4, CACl2.2 H2 O 1.8, Na2 HPO4.12 H2 O 0.8, NaH2 PO4 0.2, MgSO4.7 H2 O 0.7, Hepes 3.4; pH 7.4).
The phosphodiesterase was extracted by mixing the erythrocytes with 4 volumes of 7 mM phosphate buffer, pH 7.4, followed by sonification (3×10 sec; 100 W) and then centrifuging for 30 min at 4200 x g.
All supernatants were diluted in the extraction medium and assayed for phosphodiesterase activity within 6 hours of preparation, using the radiochemical procedure described in the above mentioned reference.
Consider `O=c1c2[nH]cnc2n(CC2CC2)c(=O)n1CC1CC1` [Example 1, 1,3-Di-cyclopropylmethyl xanthine], for which the Ki worked out at 5700 nM.
Consider `O=c1c2[nH]cnc2n(CC2CCC2)c(=O)n1CC1CCC1` [Example 2, 1,3-Di-cyclobutylmethyl xanthine], for which affinity was put at a Ki of 2200 nM.
On the same count and under the same terms, with `O=c1c2[nH]cnc2n(CC2CCCC2)c(=O)n1CC1CCCC1` [Example 3, 1,3-Di-cyclopentylmethyl xanthine] the figure was 3700 nM; with `O=c1c2[nH]cnc2n(CC2CCCCC2)c(=O)n1CC1CCCCC1` [Example 4, 1,3-Di-cyclohexylmethyl xanthine], 1700 nM.
Still for that read-out and setting: with `CC(=O)Cn1cnc2c1c(=O)n(CC1CC1)c(=O)n2CC1CC1` [Example 5, 1,3-Di-cyclopropylmethyl-7-(2-oxopropyl)-xanthine] the figure was 1400 nM.
Still for that read-out and setting: with `CC(=O)Cn1cnc2c1c(=O)n(CC1CCC1)c(=O)n2CC1CCC1` [Example 6, 1,3-Di-cyclobutylmethyl-7-(2-oxopropyl)-xanthine] the figure was 150 nM; with `CC(=O)Cn1cnc2c1c(=O)n(CC1CCCC1)c(=O)n2CC1CCCC1` [Example 7, 1,3-Di-cyclopentylmethyl-7-(2-oxopropyl)-xanthine], 1300 nM.
As to `CC(=O)Cn1cnc2c1c(=O)n(CC1CCCCC1)c(=O)n2CC1CCCCC1` [Example 8, 1,3-Di-cyclohexylmethyl-7-(2-oxopropyl)-xanthine], affinity was put at a Ki of 2300 nM.
Take `CC(O)Cn1cnc2c1c(=O)n(CC1CCCC1)c(=O)n2CC1CCCC1` (stereo not drawn) [Example 9, 1,3-Di-cyclopentylmethyl-7-(2-hydroxypropyl)-xanthine]: the Ki turned out to be 26600 nM.
Still for that read-out and setting: with `O=c1c2[nH]cnc2n(C2CCCCC2)c(=O)n1C1CCCCC1` [Example 10, 1,3-Di-cyclohexyl xanthine] the figure was 800 nM; with `CC(=O)Cn1cnc2c1c(=O)n(C1CCCCC1)c(=O)n2C1CCCCC1` [Example 11, 1,3-Di-cyclohexyl-7-(2-oxopropyl)-xanthine], 2400 nM.
The same measure, in the same setting: with `CC(O)Cn1cnc2c1c(=O)n(CC1CCC1)c(=O)n2CC1CCC1` (stereo not drawn) [Example 12, 1,3-Di-cyclobutylmethyl-7-(2-hydroxypropyl)-xanthine] the figure was 13500 nM.
In turn, `O=c1c2[nH]cnc2n(C2CCC2)c(=O)n1C1CCC1` [Example 13, 1,3-Di-cyclobutyl-xanthine] showed a Ki of 1700 nM.
On the same count and under the same terms, with `CCCn1cnc2c1c(=O)n(CC1CC1)c(=O)n2CC1CC1` [Example 14, 1,3-Di-cyclopropylmethyl-7-n-propyl xanthine] the figure was 5270 nM; with `CCCn1cnc2c1c(=O)n(CC1CCC1)c(=O)n2CC1CCC1` [Example 15, 1,3-Di-cyclobutylmethyl-7-n-propyl xanthine], 2400 nM.
On the same count and under the same terms, as for `O=c1c2c(ncn2CC2CC2)n(CC2CC2)c(=O)n1CC1CC1` [Example 16, 1,3,7-Tri-cyclopropylmethyl-xanthine], the figure is 2300 nM.
On the same count and under the same terms, as for `O=c1c2[nH]cnc2n(C2CCCC2)c(=O)n1CC1CC1` [Example 18, 1-(Cyclopropylmethyl)-3-cyclopentylxanthine], the figure is 8400 nM; as for `CC(=O)Cn1cnc2c1c(=O)n(CC1CC1)c(=O)n2CC1CCCCC1` [Example 19, 1-(Cyclopropylmethyl)-3-(cyclohexylmethyl)-7-(2-oxopropyl)xanthine], 2300 nM; as for `CC(=O)Cn1cnc2c1c(=O)n(CC1CC1)c(=O)n2C1CCCC1` [Example 20, 1-(Cyclopropylmethyl)-3-cyclopentyl-7-(2-oxopropyl)-xanthine], 2000 nM.
For `O=c1c2[nH]cnc2n(CC2CCCCC2)c(=O)n1CC1CC1` [Example 22, 1-(Cyclopropylmethyl)-3-(cyclohexylmethyl)xanthine], the Ki was 23000 nM.

Another assay concerns hippocampal CA1 field neuronal damage. As to the kind of experiment: Delayed neuronal death in gerbils after transient forebrain ischaemia. The format is in vivo, gerbil. The settings on record: 5.0 mg/kg i.p.; conclusion in words. How it is done:
Ischaemia was produced in adult male gerbils by occlusion of both common carotid arteries for 3 minutes under halothane/nitrous oxide anaesthesia. During surgery the animals were placed upon a warming blanket. The ischaemia led to neuronal degeneration and to disturbed brain function.
Brains were removed 2 weeks later and 12 μm thick coronal slices were examined light microscopically for neuronal degeneration.
Three groups of animals were used:
2. solvent-treated ligated controls
3. compound-treated ligated animals
The compound was administered 1 hour before the ligation period.
Means±SEM (n) of histopathological score [HPS] which reflects the degree of neuronal damage in the hippocampal CA1 field: […]
As for `O=c1c2[nH]cnc2n(CC2CC2)c(=O)n1CC1CC1` [Example 1, 1,3-Di-cyclopropylmethyl xanthine], the “Prevention of ischaemia induced neuronal degeneration” value was “significantly prevented ischaemia induced neuronal degeneration”.

A word on the Ki: it is a dissociation constant, usually derived from enzyme kinetics or from competition with a known ligand. Read a high Ki as weaker binding.
